# Read-outs that look alike come from different tables or passages of the source. Bridge positions count the residues as written; N and C are the ends. Square brackets hold non-standard residues; d marks the D form. Peptide text beside a SMILES is read from it. * marks the point of attachment. Trp(6-Cl) = N[C@@H](Cc1c[nH]c2cc(Cl)ccc12)C(=O)O; Trp(6-F) = N[C@@H](Cc1c[nH]c2cc(F)ccc12)C(=O)O; Pentanoyl = CCCCC(=O)*
# Assays:
# PCSK9Δhelix = molecular target: T1, PCSK9Δhelix (Homo sapiens, UniProt Q8NBP7); experiment: PCSK9Δhelix/Ab20 TR-FRET binding assay; details: for IC50: TR-FRET, read-out: PCSK9Δhelix/Ab20 IC50
# T1 construct: Human PCSK9 construct M1-Q692 with an engineered TEV site (residue deletion Y166, R167); made in house; host or cells: CHO
# T1 sequence (Q8NBP7 with tags, fused parts or gaps limits assumed): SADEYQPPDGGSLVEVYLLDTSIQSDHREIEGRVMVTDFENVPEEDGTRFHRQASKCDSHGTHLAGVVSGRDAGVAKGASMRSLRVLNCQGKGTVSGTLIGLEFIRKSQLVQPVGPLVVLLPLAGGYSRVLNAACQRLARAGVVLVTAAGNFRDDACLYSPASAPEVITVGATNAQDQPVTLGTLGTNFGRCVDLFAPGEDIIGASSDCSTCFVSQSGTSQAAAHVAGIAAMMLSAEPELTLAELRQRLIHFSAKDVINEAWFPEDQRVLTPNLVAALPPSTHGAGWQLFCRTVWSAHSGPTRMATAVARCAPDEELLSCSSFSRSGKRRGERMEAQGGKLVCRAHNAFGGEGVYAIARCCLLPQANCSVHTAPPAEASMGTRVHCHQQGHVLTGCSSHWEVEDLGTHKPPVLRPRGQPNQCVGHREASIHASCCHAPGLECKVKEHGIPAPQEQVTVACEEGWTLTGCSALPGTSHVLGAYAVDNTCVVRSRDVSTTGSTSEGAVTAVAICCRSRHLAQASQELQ
# T1 sequence (Q8NBP7 31-152 partner limits assumed): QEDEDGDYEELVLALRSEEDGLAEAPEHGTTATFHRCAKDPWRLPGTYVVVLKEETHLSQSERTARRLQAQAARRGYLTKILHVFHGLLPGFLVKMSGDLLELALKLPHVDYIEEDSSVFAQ
# PCSK9 = PCSK9 (Homo sapiens, UniProt Q8NBP7); experiment: PCSK9/EGF(A) TR-FRET binding assay; details: for IC50: TR-FRET, read-out: PCSK9/EGF(A) IC50
# Chain of PCSK9 (Q8NBP7 153-692): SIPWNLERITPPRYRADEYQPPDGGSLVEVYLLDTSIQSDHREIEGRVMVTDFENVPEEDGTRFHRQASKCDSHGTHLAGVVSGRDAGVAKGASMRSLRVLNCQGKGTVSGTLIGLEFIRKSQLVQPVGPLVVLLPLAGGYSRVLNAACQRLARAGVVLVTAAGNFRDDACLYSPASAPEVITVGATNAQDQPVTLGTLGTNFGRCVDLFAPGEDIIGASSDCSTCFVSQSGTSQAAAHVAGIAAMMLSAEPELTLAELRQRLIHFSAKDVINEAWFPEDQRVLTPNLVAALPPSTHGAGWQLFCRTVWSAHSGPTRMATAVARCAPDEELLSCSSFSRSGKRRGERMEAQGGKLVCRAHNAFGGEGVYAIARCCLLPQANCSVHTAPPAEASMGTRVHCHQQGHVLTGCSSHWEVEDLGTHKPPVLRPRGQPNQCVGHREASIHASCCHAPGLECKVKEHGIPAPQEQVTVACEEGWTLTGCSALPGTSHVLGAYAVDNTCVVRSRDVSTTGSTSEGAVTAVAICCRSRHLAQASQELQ
# Chain of PCSK9 (Q8NBP7 31-152 partner limits assumed): as the sequence (Q8NBP7 31-152 partner limits assumed) above
# Description: The former was based on a TF-FRET assay to measure the association of the EGF(A) domain of the LDLR to PCSK9 (“PCSK9/EGF(A) binding assay”) whilst the latter was based on a TR-FRET assay to measure binding of Ab20 to PCSK9Δhelix (“PCSK9Δhelix/Ab20 binding assay”).
# The ability of compounds to inhibit binding to PCSK9 was evaluated with a panel of time-resolved fluorescence resonance energy transfer (TR-FRET) binding assays. […] The PCSK9Δhelix/Ab20 binding assay evaluated the ability of compounds to compete with Ab20 for binding to the N-terminal groove region in a His-tagged, PCSK9Δhelix construct. […] Signal generation in the PCSK9 binding assays was dependent upon the binding interaction to bring into close proximity the His-tag on the PCSK9 and the Fc-tag on the ligand. Anti-His-APC was bound to the His-tag, and anti-Fc-europium was bound to the Fc-tag. When these two antibodies were in close proximity and were irradiated with light at 340 nm, the europium was excited and emitted energy at 615 nm. This energy was taken up by the APC and was emitted as light at 665 nm. Compounds that competed with the ligand reduced the energy transfer and thus the emission at 665 nm. In the His-EGFA-Fc molecule in the counterscreen, the two tags were always in close proximity, thus any reduction in emission at 665 nm was due to interference with the detection system.
# Compounds were solubilized and dilutions were prepared in DMSO. […] The plate was centrifuged to mix the well contents and allowed to incubate for 30 min. […] The TR-FRET signal was read on a ViewLux reader (PerkinElmer) with excitation at 340 nm and emission at 615 and 665 nm with a 50-μs time delay between excitation and measurement of emission. The TR-FRET ratio was calculated as the fluorescence emission at 665 nm divided by the fluorescence emission at 615 nm. The normalized TR-FRET ratios were plotted as a function of the compound concentrations, and the IC50 values were determined using a 4-parameter logistic regression.
# In black 1536-well assay plates (MaKO, Aurora® Microplates, Whitefish, Mont.), 40 nL of peptide in DMSO were preincubated with 2 μL His-tagged PCSK9 plus anti-His-allophycocyanin in assay buffer (50 mM Tris-HCl, pH 7.5, 150 mM NaCl, 2 mM CaCl2, 0.01% Tween®-20, 0.1% bovine gamma globulins, and protease inhibitor cocktail) for 30 min. Then 2 μL of Fc-tagged ligand and anti-Fc-europium in assay buffer were added and allowed to incubate for 2 h.
# His-EGF(A)-Fc = His-EGF(A)-Fc TR-FRET counterscreen
# [1] = Table 8D, disulfide-cyclized extension peptides
# [2] = TR-FRET counterscreen, Table 8D, * = some inhibition at highest concentrations, not sufficient to fit an IC50
# [3] = TR-FRET counterscreen, Table 8E, additional compounds
molecule,measurement,setting,value
CC[C@H](C)[C@@H]1NC(=O)[C@H](CCCNC(=N)N)NC(=O)[C@H](CCC(N)=O)NC(=O)[C@H](CC(C)C)NC(=O)[C@H](CC(N)=O)NC(=O)[C@@H](Cc2c[nH]c3ccccc23)NC(=O)[C@@H]2CCCN2C(=O)[C@H](CC(C)C)NC(=O)[C@H](CCCNC(=N)N)NC(=O)[C@@H](NC(C)=O)CSSC[C@@H](C(N)=O)NC(=O)[C@@H]2CCCN2C(=O)[C@H](CC(C)C)NC(=O)CNC1=O [Compound 106] (Ac-CRLP[dW]NLQRIGLPC-NH2; disulfide 1-14),IC50,PCSK9Δhelix; [1],> 50 µM
same,IC50,PCSK9; [1],> 50 µM
same,IC50,His-EGF(A)-Fc; [2],> 50 µM
CC[C@H](C)[C@@H]1NC(=O)[C@H](CCCNC(=N)N)NC(=O)[C@H](CCCCN)NC(=O)[C@H](CC(C)C)NC(=O)[C@H](CC(N)=O)NC(=O)[C@H](Cc2c[nH]c3ccccc23)NC(=O)[C@@H](NC(=O)CNC(=O)[C@H](CO)NC(=O)CNC(=O)CNC(=O)[C@@H](NC(=O)[C@H](Cc2c[nH]c3ccccc23)NC(=O)[C@H](CC(=O)O)NC(=O)[C@H](CC(C)C)NC(=O)[C@H](Cc2ccc(O)cc2)NC(=O)[C@H](CCC(=O)O)NC(=O)[C@H](CCC(=O)O)NC(=O)[C@H](Cc2c[nH]c3ccccc23)NC(=O)[C@H](CO)NC(=O)[C@@H](NC(=O)[C@H](Cc2ccccc2)NC(=O)[C@@H](NC(=O)[C@@H](NC(C)=O)[C@@H](C)O)C(C)C)[C@@H](C)O)C(C)C)CSSC[C@@H](C(N)=O)NC(=O)CNC(=O)[C@H](CCC(N)=O)NC(=O)[C@H](CO)NC(=O)CNC1=O [Compound 13] (Ac-TVFTSWEEYLDWVGGSGCWNLKRIGSQGC-NH2; disulfide 18-29),inhibition in the PCSK9Δhelix/Ab20 binding assay,PCSK9Δhelix,potent inhibitors
same,IC50,PCSK9Δhelix; Example 7,0.001 µM
same,inhibition in the PCSK9/EGF(A) binding assay,PCSK9,potent inhibitors
same,IC50,PCSK9; Example 7,0.01 µM
same,IC50,"His-EGF(A)-Fc; counterscreen, Example 7",> 50 µM
CC[C@H](C)[C@@H]1NC(=O)[C@H](CCCNC(=N)N)NC(=O)[C@H](CCCCN)NC(=O)[C@H](CC(C)C)NC(=O)[C@H](CC(N)=O)NC(=O)[C@H](Cc2c[nH]c3ccccc23)NC(=O)[C@H](CC(C)C)NC(=O)[C@@H](NC(=O)[C@H](CC(=O)O)NC(C)=O)CSSC[C@@H](C(=O)N[C@@H](CCC(=O)O)C(=O)N[C@@H](Cc2ccc(O)cc2)C(N)=O)NC(=O)[C@H](CCC(N)=O)NC(=O)[C@H](CO)NC(=O)CNC1=O [Compound 64] (Ac-DCLWNLKRIGSQCEY-NH2; disulfide 2-13),IC50,PCSK9Δhelix; [1],> 50 µM
same,IC50,PCSK9; [1],> 50 µM
same,IC50,His-EGF(A)-Fc; [2],> 50 µM
CC[C@H](C)[C@@H]1NC(=O)[C@H](CCCNC(=N)N)NC(=O)[C@H](CCC(N)=O)NC(=O)[C@H](CC(C)C)NC(=O)[C@H](CC(N)=O)NC(=O)[C@H](Cc2c[nH]c3ccccc23)NC(=O)[C@@H]2CCCN2C(=O)[C@H](CC(C)C)NC(=O)[C@H](CCCNC(=N)N)NC(=O)[C@@H](NC(=O)CNC(=O)[C@H](CO)NC(=O)CNC(=O)[C@@H](NC(=O)[C@H](Cc2c[nH]c3ccccc23)NC(=O)[C@H](CC(=O)O)NC(=O)[C@H](CC(C)C)NC(=O)[C@H](Cc2ccc(O)cc2)NC(=O)[C@H](CCC(=O)O)NC(=O)[C@H](CCC(=O)O)NC(=O)[C@H](Cc2c[nH]c3cc(F)ccc23)NC(=O)[C@H](CO)NC(=O)[C@@H](NC(=O)[C@H](Cc2ccccc2)NC(=O)[C@@H](NC(=O)[C@@H](NC(C)=O)[C@@H](C)O)C(C)C)[C@@H](C)O)C(C)C)CSSC[C@@H](C(N)=O)NC(=O)[C@@H]2CCCN2C(=O)[C@H](CC(C)C)NC(=O)CNC1=O [Compound 241] (Ac-TVFTS[Trp(6-F)]EEYLDWVGSGCRLPWNLQRIGLPC-NH2; disulfide 17-30 (inferred)),IC50,"PCSK9Δhelix; Table 8E, additional compounds",0.1 µM
same,IC50,"PCSK9; Table 8E, additional compounds",1.6 µM
same,IC50,His-EGF(A)-Fc; [3],≥ 50 µM
CCCCC(=O)N[C@@H](Cc1c[nH]c2cc(Cl)ccc12)C(=O)N[C@@H](CC(N)=O)C(=O)N[C@@H](CC(C)C)C(=O)N[C@H](C(=O)N[C@@H](CCCNC(=N)N)C(=O)N[C@H](C(=O)NCC(=O)N[C@@H](CC(C)C)C(=O)N[C@H](C(=O)N[C@@H](CCCNC(=N)N)C(N)=O)[C@@H](C)O)[C@@H](C)CC)C(C)C [Compound 186] (Pentanoyl-[Trp(6-Cl)]NLVRIGLTR-NH2),IC50,"PCSK9Δhelix; Table 8E, additional compounds",11 µM
same,IC50,"PCSK9; Table 8E, additional compounds",31 µM
same,IC50,His-EGF(A)-Fc; [3],46 µM
CC[C@H](C)[C@@H]1NC(=O)[C@H](CCCNC(=N)N)NC(=O)[C@H](CCC(N)=O)NC(=O)[C@H](CC(C)C)NC(=O)[C@H](CC(N)=O)NC(=O)[C@H](Cc2c[nH]c3ccccc23)NC(=O)[C@@H]2CCCN2C(=O)[C@H](CC(C)C)NC(=O)[C@H](C)NC(=O)[C@@H](NC(C)=O)CSSC[C@@H](C(N)=O)NC(=O)[C@@H]2CCCN2C(=O)[C@H](CC(C)C)NC(=O)CNC1=O [Compound 79] (Ac-CALPWNLQRIGLPC-NH2; disulfide 1-14),IC50,PCSK9Δhelix; [1],1.53 µM
same,IC50,PCSK9; [1],> 50 µM
same,IC50,His-EGF(A)-Fc; [2],> 50 µM
CC[C@H](C)[C@@H]1NC(=O)[C@H](CCCNC(=N)N)NC(=O)[C@H](CCCCN)NC(=O)[C@H](CC(C)C)NC(=O)[C@H](CC(N)=O)NC(=O)[C@H](Cc2c[nH]c3ccccc23)NC(=O)[C@@H](NC(=O)CCCCCCCNC(=O)[C@@H](NC(=O)[C@H](Cc2c[nH]c3ccccc23)NC(=O)[C@H](CC(=O)O)NC(=O)[C@H](CC(C)C)NC(=O)[C@H](Cc2ccc(O)cc2)NC(=O)[C@H](CCC(=O)O)NC(=O)[C@H](CCC(=O)O)NC(=O)[C@H](Cc2c[nH]c3ccccc23)NC(=O)[C@H](CO)NC(=O)[C@@H](NC(=O)[C@H](Cc2ccccc2)NC(=O)[C@@H](NC(=O)[C@@H](NC(C)=O)[C@@H](C)O)C(C)C)[C@@H](C)O)C(C)C)CSSC[C@@H](C(N)=O)NC(=O)CNC(=O)[C@H](CCC(N)=O)NC(=O)[C@H](CO)NC(=O)CNC1=O [Compound 15],inhibition in the PCSK9Δhelix/Ab20 binding assay,PCSK9Δhelix,maintained potency
same,IC50,PCSK9Δhelix; Example 7,0.002 µM
same,inhibition in the PCSK9/EGF(A) binding assay,PCSK9,maintained potency
same,IC50,"His-EGF(A)-Fc; counterscreen, Example 7",> 50 µM
CC[C@H](C)[C@@H]1NC(=O)[C@H](CCCNC(=N)N)NC(=O)[C@H](CCCCN)NC(=O)[C@H](CC(C)C)NC(=O)[C@H](CC(N)=O)NC(=O)[C@H](Cc2c[nH]c3ccccc23)NC(=O)[C@@H](NC(=O)CCCCCCNC(=O)[C@@H](NC(=O)[C@H](Cc2c[nH]c3ccccc23)NC(=O)[C@H](CC(=O)O)NC(=O)[C@H](CC(C)C)NC(=O)[C@H](Cc2ccc(O)cc2)NC(=O)[C@H](CCC(=O)O)NC(=O)[C@H](CCC(=O)O)NC(=O)[C@H](Cc2c[nH]c3ccccc23)NC(=O)[C@H](CO)NC(=O)[C@@H](NC(=O)[C@H](Cc2ccccc2)NC(=O)[C@@H](NC(=O)[C@@H](NC(C)=O)[C@@H](C)O)C(C)C)[C@@H](C)O)C(C)C)CSSC[C@@H](C(N)=O)NC(=O)CNC(=O)[C@H](CCC(N)=O)NC(=O)[C@H](CO)NC(=O)CNC1=O [Compound 24],inhibition in the PCSK9Δhelix/Ab20 binding assay,PCSK9Δhelix,maintained potency
same,IC50,PCSK9Δhelix; Example 7,0.001 µM
same,inhibition in the PCSK9/EGF(A) binding assay,PCSK9,maintained potency
same,IC50,"His-EGF(A)-Fc; counterscreen, Example 7",> 50 µM
Ac-PWNLVRIGL-NH2 [Compound 119],IC50,PCSK9Δhelix; Example 7,≥ 49.5 µM
same,IC50,PCSK9; Example 7,> 50 µM
same,IC50,"His-EGF(A)-Fc; counterscreen, Example 7",> 50 µM
CC[C@H](C)[C@@H]1NC(=O)[C@H](CCCNC(=N)N)NC(=O)[C@H](CCCCN)NC(=O)[C@H](CC(C)C)NC(=O)[C@H](CC(N)=O)NC(=O)[C@H](Cc2c[nH]c3ccccc23)NC(=O)[C@H](CC(C)C)NC(=O)[C@@H](NC(=O)[C@H](Cc2c[nH]c3ccccc23)NC(C)=O)CSSC[C@@H](C(=O)N[C@@H](CCC(=O)O)C(=O)N[C@@H](Cc2ccc(O)cc2)C(N)=O)NC(=O)[C@H](CCC(N)=O)NC(=O)[C@H](CO)NC(=O)CNC1=O [Compound 65] (Ac-WCLWNLKRIGSQCEY-NH2; disulfide 2-13),IC50,PCSK9Δhelix; [1],7.1 µM
same,IC50,PCSK9; [1],> 50 µM
same,IC50,His-EGF(A)-Fc; [2],> 50 µM
CC[C@H](C)[C@@H]1NC(=O)[C@H](CCCNC(=N)N)NC(=O)[C@H](CCCCN)NC(=O)[C@H](CC(C)C)NC(=O)[C@H](CC(N)=O)NC(=O)[C@H](Cc2c[nH]c3ccccc23)NC(=O)[C@H](CC(C)C)NC(=O)[C@@H](NC(=O)CNC(C)=O)CSSC[C@@H](C(=O)N[C@@H](Cc2c[nH]c3ccccc23)C(=O)N[C@@H](Cc2ccccc2)C(N)=O)NC(=O)[C@H](CCC(N)=O)NC(=O)[C@H](CO)NC(=O)CNC1=O [Compound 87] (Ac-GCLWNLKRIGSQCWF-NH2; disulfide 2-13 (inferred)),IC50,PCSK9Δhelix; [1],9.53 µM
same,IC50,PCSK9; [1],> 50 µM
same,IC50,His-EGF(A)-Fc; [2],> 50 µM
Ac-GGMPWNLVRIGLLR-NH2 [Compound 125],IC50,"PCSK9Δhelix; Table 8E, additional compounds",7 µM
same,IC50,"PCSK9; Table 8E, additional compounds",≥ 50 µM
same,IC50,His-EGF(A)-Fc; [3],≥ 50 µM
"CC[C@H](C)[C@@H]1NC(=O)[C@H](CCCNC(=N)N)NC(=O)[C@H](CCC(N)=O)NC(=O)[C@@H](CC(C)C)NC(=O)[C@H](CC(N)=O)NC(=O)[C@H](Cc2c[nH]c3ccccc23)NC(=O)[C@@H]2CCCN2C(=O)[C@H](CC(C)C)NC(=O)[C@H](CCCNC(=N)N)NC(=O)[C@@H](NC(C)=O)CSSC[C@@H](C(N)=O)NC(=O)[C@@H]2CCCN2C(=O)[C@H](CC(C)C)NC(=O)CNC1=O [Compound 104, Ac-CRLPWNlQRIGLPC-NH2] (Ac-CRLPWN[dL]QRIGLPC-NH2; disulfide 1-14)",IC50,PCSK9Δhelix; [1],> 50 µM
same,IC50,PCSK9; [1],> 50 µM
same,IC50,His-EGF(A)-Fc; [2],> 50 µM
CC[C@H](C)[C@@H]1NC(=O)[C@H](CCCNC(=N)N)NC(=O)[C@H](CCC(N)=O)NC(=O)[C@H](CC(C)C)NC(=O)[C@H](CC(N)=O)NC(=O)[C@H](Cc2c[nH]c3ccccc23)NC(=O)[C@@H]2CCCN2C(=O)[C@H](CC(C)C)NC(=O)[C@@H](CCCNC(=N)N)NC(=O)[C@@H](NC(C)=O)CSSC[C@@H](C(N)=O)NC(=O)[C@@H]2CCCN2C(=O)[C@H](CC(C)C)NC(=O)CNC1=O [Compound 109] (Ac-C[dR]LPWNLQRIGLPC-NH2; disulfide 1-14),IC50,PCSK9Δhelix; [1],1.67 µM
same,IC50,PCSK9; [1],> 50 µM
same,IC50,His-EGF(A)-Fc; [2],> 50 µM
